From article PMC6185904 (Nature Communications, 2018)

Experiments:
[1] = target: T1, human CMP–sialic acid transporter SLC35A1 (human CMP–Sia) (Homo sapiens, UniProt P78382); assay: GFP-TS titration, one-site fit, DDM-solubilized membranes (also ITC on purified protein)
T1 construct: full-length, GFP-8His fusion (pDDGFP-2), expressed in S. cerevisiae FGY217; DDM-solubilized membranes or purified
T1 sequence (P78382 1-337): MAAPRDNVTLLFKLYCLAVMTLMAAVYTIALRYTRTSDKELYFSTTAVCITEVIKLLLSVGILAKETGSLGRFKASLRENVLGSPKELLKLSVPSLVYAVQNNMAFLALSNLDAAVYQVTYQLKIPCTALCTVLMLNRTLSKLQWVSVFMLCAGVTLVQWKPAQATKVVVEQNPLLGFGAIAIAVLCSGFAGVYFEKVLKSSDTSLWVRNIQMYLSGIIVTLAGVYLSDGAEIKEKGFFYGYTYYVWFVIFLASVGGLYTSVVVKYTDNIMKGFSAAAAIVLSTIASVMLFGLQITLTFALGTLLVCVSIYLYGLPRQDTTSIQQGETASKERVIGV
Description: GFP-TS titration, one-site fit, DDM-solubilized membranes (also ITC on purified protein) on human CMP–sialic acid transporter SLC35A1 (human CMP–Sia) | we used the GFP-TS to determine CMP binding affinities (Kd) for the plant and human

[2] = target: T2, NhaA (sodium/proton antiporter), dimeric NhaA-GFP (Escherichia coli, UniProt P13738); assay: FSEC-TS titration of dimer stabilization, nonlinear regression; type: binding; conditions: pH 7.5, 150 mM NaCl, 0.03% DDM plus 1% beta-OG, heated at 47 °C; 19 CL concentrations; dimer interface site; read-out: CL dependent oligomerization concentration (midpoint)
T2 construct: full-length, C-terminal GFP-8His fusion (pWaldo GFPd), expressed in E. coli Lemo21(DE3), purified in DDM; homodimer
T2 sequence (P13738 1-388): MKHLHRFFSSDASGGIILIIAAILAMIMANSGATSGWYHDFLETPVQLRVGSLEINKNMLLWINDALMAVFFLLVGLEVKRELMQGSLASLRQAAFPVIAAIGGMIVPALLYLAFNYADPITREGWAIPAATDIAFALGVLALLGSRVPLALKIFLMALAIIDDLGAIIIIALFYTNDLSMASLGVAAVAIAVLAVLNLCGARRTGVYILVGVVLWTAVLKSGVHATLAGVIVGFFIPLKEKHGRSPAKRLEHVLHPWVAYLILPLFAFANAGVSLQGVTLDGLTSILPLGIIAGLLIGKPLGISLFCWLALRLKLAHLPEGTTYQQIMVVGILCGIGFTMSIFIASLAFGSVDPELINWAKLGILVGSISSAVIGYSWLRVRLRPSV

[3] = target: T2, NhaA (sodium/proton antiporter), dimeric NhaA-GFP; assay: FSEC-TS thermal shift, purified NhaA-GFP; type: binding; conditions: purified in DDM; dimer
human NHA2 = target: T3, human NHA2 (Homo sapiens, UniProt Q86UD5); assay: GFP-TS lipid screen, purified GFP fusion; type: binding; conditions: 3 mg/mL lipid, heated at apparent Tm + 5 °C, pH 7.5, 150 mM NaCl, DDM plus 1% beta-OG
T3 construct: gene SLC9B2; GFP-8His fusion (pDDGFP-2), expressed in S. cerevisiae FGY217, purified in DDM
T3 sequence (Q86UD5 1-537): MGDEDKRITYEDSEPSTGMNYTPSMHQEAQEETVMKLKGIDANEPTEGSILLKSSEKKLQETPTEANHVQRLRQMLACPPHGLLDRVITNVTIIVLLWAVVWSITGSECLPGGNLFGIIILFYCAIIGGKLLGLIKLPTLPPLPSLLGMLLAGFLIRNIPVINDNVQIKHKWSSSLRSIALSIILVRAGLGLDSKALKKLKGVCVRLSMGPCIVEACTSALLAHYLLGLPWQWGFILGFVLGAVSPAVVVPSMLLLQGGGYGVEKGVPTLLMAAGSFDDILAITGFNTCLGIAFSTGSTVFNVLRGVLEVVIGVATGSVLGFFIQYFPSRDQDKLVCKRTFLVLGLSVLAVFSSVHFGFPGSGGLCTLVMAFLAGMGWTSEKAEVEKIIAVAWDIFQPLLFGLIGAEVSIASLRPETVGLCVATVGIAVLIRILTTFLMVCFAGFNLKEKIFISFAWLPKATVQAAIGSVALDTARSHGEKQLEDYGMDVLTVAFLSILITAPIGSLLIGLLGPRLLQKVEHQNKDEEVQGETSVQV

[4] = target: T4, putative Zea mays CMP–sialic acid transporter (Z. mays CMP–Sia) (Zea mays, UniProt B4FZ94); assay: GFP-TS thermostabilization, DDM-solubilized membranes; type: binding; conditions: 5 mM ligand, heated at 54 °C, pH 7.5, 150 mM NaCl, DDM plus 1% beta-OG
T4 construct: gene ZEAMMB73_Zm00001d046060; full-length synthesized clone, GFP-8His fusion (pDDGFP-2), expressed in S. cerevisiae FGY217; DDM-solubilized membranes or purified
T4 sequence (B4FZ94 1-322): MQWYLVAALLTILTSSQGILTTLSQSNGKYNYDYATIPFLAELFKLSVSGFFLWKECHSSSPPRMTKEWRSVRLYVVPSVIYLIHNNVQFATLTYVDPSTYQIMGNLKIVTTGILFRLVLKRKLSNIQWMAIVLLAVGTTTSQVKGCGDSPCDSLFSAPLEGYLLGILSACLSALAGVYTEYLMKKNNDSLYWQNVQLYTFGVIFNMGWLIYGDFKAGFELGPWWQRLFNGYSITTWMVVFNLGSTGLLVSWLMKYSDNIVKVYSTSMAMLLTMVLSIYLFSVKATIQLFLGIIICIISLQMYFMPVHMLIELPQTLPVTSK

[5] = target: T1, human CMP–sialic acid transporter SLC35A1 (human CMP–Sia); assay: as above; type: binding; conditions: 5 mM ligand, heated at 42 °C, pH 7.5, 150 mM NaCl, DDM plus 1% beta-OG

Nc1ccn([C@@H]2O[C@H](COP(=O)(O)O)[C@@H](O)[C@H]2O)c(=O)n1 [CMP]
Kd [1]: 19.5 ± 3.8 µM

CCCCCCCC/C=C\CCCCCCCC(=O)OC[C@H](COP(=O)(O)OCC(O)COP(=O)(O)OC[C@@H](COC(=O)CCCCCCC/C=C\CCCCCCCC)OC(=O)CCCCCCC/C=C\CCCCCCCC)OC(=O)CCCCCCC/C=C\CCCCCCCC (stereo partly drawn) [CL, cardiolipin (18:1)]
EC50 [2]: 1400 µM
apparent Tm without to with cardiolipin [3]: 42 to 53 °C

CCCCCCCC/C=C\CCCCCCCC(=O)OC[C@H](COP(=O)(O)OCC(O)CO)OC(=O)CCCCCCC/C=C\CCCCCCCC (stereo partly drawn) [DOPG]
supernatant fluorescence after heating (human NHA2): human NHA2, where the addition of PG was clearly stabilizing

CC(=O)N[C@H]1[C@H]([C@H](O)[C@H](O)CO)O[C@](OP(=O)(O)OC[C@H]2O[C@@H](n3ccc(N)nc3=O)[C@H](O)[C@@H]2O)(C(=O)O)C[C@@H]1O [CMP–sialic acid]
supernatant fluorescence after heating [4]: higher thermostablization for CMP–sialic acid as compared to the addition of sialic acid only
supernatant fluorescence after heating [5]: almost identical stabilization profile for substrates was observed for the human CMP–sialic acid transporter
